# Assays:
# Assay type in all cases: cell-based, human
# platelets [1] = assay: Platelet aggregation test, thrombin as stimulant; conditions: for in vitro platelet aggregation inhibition, comparative experiment: under the stimulus of thrombin; for platelet aggregation inhibition: human platelets 3×10^8/mL, compound 0.1, 0.5, 1, 5, 10 μM, incubated 3 mins, thrombin stimulant
# Experimental: (1) Preparation of platelets: human blood plasma with high concentration of platelets is used to prepare platelets counting 3×10^8/mL, which are placed in a water bath of 37° C.
# The compound is incubated in platelets for 3 mins before the experiment, and resting and DMSO are included in the experiment as control groups. Thrombin is used as stimulant. The aggregation curve and aggregation rate are obtained by the platelet aggregation test instrument.
# (1) Preparation of platelets: use the same method as abovementioned to prepare platelets counting 3×10^8/mL.
# (2) Acetylsalicylic acid is dissolved in anhydrous ethanol, and diluted into a concentration of 50 mmol/L, it is then stimulated with the thrombin stimulant to observe the platelet aggregation.
# (2) Acetylsalicylic acid is dissolved in anhydrous ethanol, and diluted into a concentration of 50 mmol/L, it is stimulated with the thrombin stimulant to observe the platelet aggregation.
# Akt molecule = assay: Western blotting test on phosphorylation levels of related molecules in platelets; conditions: platelet protein samples collected after the aggregation test
# platelets [2] = assay: Platelet spreading test on fibrin, phalloidin staining; conditions: platelets 3×10^7/mL, compound 1, 5, 10 μM, incubated 3 mins, spread on fibrin (40 μg/mL), 100× oil immersion lens
# Experimental: (1) Preparation of platelets: use the same method as abovementioned to prepare platelets counting 3×10^7/mL.
# The compound is incubated in platelets for 3 mins. The platelets treated by the drug are spread on fibrin (40 μg/mL). After Staining by the fluorescent antibody phalloidin, the spreading of platelets are observed under the 100× oil immersion lens.
# (2) Concentration gradient of compound atractylenolide III; final concentrations of the compound in 100 uL platelets are respectively 1 μM, 5 μM, 10 μM. The compound is incubated in platelets for 3 mins. The platelets treated by the drug are spread on fibrin (40 μg/mL). After staining by the fluorescent antibody phalloidin, the spreading of platelets is observed under the 100× oil immersion lens.
molecule,measurement,setting,value
"CC(=O)Oc1ccccc1C(=O)O [acetylsalicylic acid, reference compound]","in vitro platelet aggregation inhibition, comparative experiment",platelets [1]; 150 μM,does not show the inhibitory effect
C=C1CCC[C@]2(C)C[C@]3(O)OC(=O)C(C)=C3C[C@@H]12 [atractylenolide III],"in vitro platelet aggregation inhibition, comparative experiment",platelets [1]; 10 μM,has the effect of inhibiting platelet aggregation
same,platelet aggregation inhibition,platelets [1],has an effect of inhibiting platelet aggregation
same,phosphorylation level of the Akt molecule,Akt molecule,affects the phosphorylation level of the Akt molecule
same,effect on platelet spreading,platelets [2],has an influence on platelet spreading
atractylenolide II,"in vitro platelet aggregation inhibition, comparative experiment",platelets [1]; 10 μM,has the effect of inhibiting platelet aggregation
same,platelet aggregation inhibition,platelets [1],has an effect of inhibiting platelet aggregation
same,effect on platelet spreading,platelets [2],has an influence on platelet spreading

# Source: US9642832B2, “Use of atractylenolide compound or its derivatives and a medicament for inhibiting platelet aggregation” (No. 3 People Hospital Affiliated to Shanghai Jiaotong …, priority 2014, dated 2017)
